Experimental data from ChEMBL document CHEMBL5154904, “Discovery and Structural Basis of the Selectivity of Potent Cyclic Peptide Inhibitors of MAGE-A4” (J Med Chem, 2022).
Changes are numbered by the printed parent chain. Activity calls are given as the source filed them. The calls are words filed in the database; no cut-off is given here. Positions of bridges follow the written chain, without caps; N, C: chain ends. Residues, ends and D or L forms follow the SMILES beside them.

Experiments:
Homo sapiens [1] = species on record: Homo sapiens; assay: Inhibition of Eu-W1024 streptavidin-labeled 6 xHis-tagged MAGEA4-MH domain E225A mutant (unknown origin) expressed in Escherichia coli BL21-(DE3) interaction with Ulight-labeled GST-tagged RAD18 (unknown origin) (267 to 402 residues) at 1 uM by LANCE TR-FRET assay
[2] = system: T1, Melanoma-associated antigen 4 (Homo sapiens), P43358 [M161A]; assay: Binding affinity to recombinant N-terminal His-tagged MAGEA4-MH domain M161A mutant (unknown origin) expressed in Escherichia coli BL21-(DE3) assessed as increase in thermal stability by SYPRO orange dye based differential scanning fluorimetry; settings: dose 10.0 µM
T1 sequence (whole entry): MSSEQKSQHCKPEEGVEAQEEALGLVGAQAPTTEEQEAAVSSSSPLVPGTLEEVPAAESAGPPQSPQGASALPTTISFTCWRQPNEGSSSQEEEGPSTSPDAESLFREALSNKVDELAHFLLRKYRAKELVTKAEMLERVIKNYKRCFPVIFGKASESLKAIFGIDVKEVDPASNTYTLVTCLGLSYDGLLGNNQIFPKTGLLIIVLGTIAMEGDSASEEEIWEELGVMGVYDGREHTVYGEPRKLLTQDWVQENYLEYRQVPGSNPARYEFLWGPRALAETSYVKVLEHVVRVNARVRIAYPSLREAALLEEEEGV

NCI-H1299 [3] = assay: Inhibition of MAGEA4 in human NCI-H1299 cell lysate interaction with HA-tagged RAD18 (unknown origin) at 20 nM incubated for overnight by co-immunoprecipitation pull down assay; format: subcellular
Homo sapiens [4] = species on record: Homo sapiens; assay: Inhibition of Eu-W1024 streptavidin-labeled 6 xHis-tagged MAGEA4-MH domain I205A mutant (unknown origin) expressed in Escherichia coli BL21-(DE3) interaction with Ulight-labeled GST-tagged RAD18 (unknown origin) (267 to 402 residues) at 1 uM by LANCE TR-FRET assay
NCI-H1299 [5] = assay: Inhibition of MAGEA4 in human NCI-H1299 cell lysate interaction with HA-tagged RAD18 (unknown origin) at 1 uM incubated for overnight by co-immunoprecipitation pull down assay; format: subcellular
[6] = system: T2, Melanoma-associated antigen 4 (Homo sapiens), P43358 [M229A]; assay: Binding affinity to recombinant N-terminal His-tagged MAGEA4-MH domain M229A mutant (unknown origin) expressed in Escherichia coli BL21-(DE3) assessed as increase in thermal stability by SYPRO orange dye based differential scanning fluorimetry; settings: dose <= 10.0 µM
T2 sequence (whole entry): T1 sequence (whole entry) with A161M, M229A

[7] = system: T3, Melanoma-associated antigen 4 (Homo sapiens), P43358 [V291A]; assay: Binding affinity to recombinant N-terminal His-tagged MAGEA4-MH domain V291A mutant (unknown origin) expressed in Escherichia coli BL21-(DE3) assessed as increase in thermal stability by SYPRO orange dye based differential scanning fluorimetry; settings: dose <= 10.0 µM
T3 sequence (whole entry): T1 sequence (whole entry) with A161M, V291A

[8] = system: T4, Melanoma-associated antigen 4 (Homo sapiens), P43358 [D115R]; assay: Binding affinity to recombinant N-terminal His-tagged MAGEA4-MH domain D115R mutant (unknown origin) expressed in Escherichia coli BL21-(DE3) assessed as increase in thermal stability by SYPRO orange dye based differential scanning fluorimetry; settings: dose <= 10.0 µM
T4 sequence (whole entry): T1 sequence (whole entry) with D115R, A161M

[9] = target: T5, Melanoma-associated antigen 4 (Homo sapiens) (UniProt P43358); assay: Binding affinity to recombinant N-terminal His-tagged MAGEA4-MH domain (unknown origin) expressed in Escherichia coli BL21-(DE3) assessed as protection in trypsin-induced MAGEA4 protein degradation incubated for 1 hr by proteolysis based SDS-PAGE analysis
T5 sequence (whole entry): T1 sequence (whole entry) with A161M

[10] = system: T6, Melanoma-associated antigen 4 (Homo sapiens), P43358 [V228A]; assay: Binding affinity to recombinant N-terminal His-tagged MAGEA4-MH domain V228A mutant (unknown origin) expressed in Escherichia coli BL21-(DE3) assessed as increase in thermal stability by SYPRO orange dye based differential scanning fluorimetry; settings: dose <= 10.0 µM
T6 sequence (whole entry): T1 sequence (whole entry) with A161M, V228A

inhibition (Homo sapiens [1]): Active
Tm [2]: < 3.5 °C
inhibition (NCI-H1299 [3]): Active
inhibition (Homo sapiens [4]): Active
inhibition (NCI-H1299 [5]): Active
Tm [6]: < 3.5 °C
Tm [7]: < 3.5 °C
Tm [8]: < 3.5 °C
Activity [9]: Active
Tm [10]: < 3.5 °C
Structure (SMILES): CC[C@H](C)[C@@H]1NC(=O)[C@H](Cc2ccc(O)cc2)NC(=O)CSC[C@@H](C(N)=O)NC(=O)[C@H](CC(N)=O)NC(=O)[C@H](Cc2cnc[nH]2)NC(=O)[C@H](Cc2ccc(O)cc2)NC(=O)[C@H](CC(=O)O)NC(=O)[C@H](Cc2ccc(O)cc2)NC(=O)[C@H](CC(C)C)NC(=O)[C@H](CCCNC(=N)N)NC1=O ({CH2CO}-YIRLYDYHNC-NH2; thioether N-10)
